In patent US12599136B2, “Substituted isophthalic acid diamides and their use as herbicides” (Bayer Aktiengesellschaft, priority 2020, dated 2026):

Columns and labels:
Format in all cases: in vivo
Amaranthus retroflexus [1] = assay: Pre-emergence herbicidal action against AMARE; conditions: visual score after 3 weeks vs untreated controls
Outline: (§1)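 Pre-emergence soil-surface spray of formulated compound (WP or EC; 600 to 800 l/ha; 0.2% wetting agent) over seeds sown in sandy loam. After 3 weeks under greenhouse conditions, damage is estimated visually in percent against untreated plants.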

Alopecurus myosuroides [2] = assay: Pre-emergence herbicidal action against ALOMY; conditions: 80 g/ha; visual score after 3 weeks vs untreated controls
Outline: as §1

Viola tricolor [3] = assay: Pre-emergence herbicidal action against VIOTR
Outline: as §1

Viola tricolor [4] = assay: Post-emergence herbicidal action against VIOTR
Outline: (§2)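 Greenhouse plants in sandy loam were sprayed at the one-leaf stage, 2 to 3 weeks after sowing, with WP or EC formulations as aqueous suspension or emulsion (600 to 800 l/ha water, 0.2% wetting agent). Visual damage was scored about 3 weeks later versus untreated controls, 0% = like control, 100% = dead.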

Digitaria sanguinalis [5] = assay: Pre-emergence herbicidal action against DIGSA
Outline: as §1

Abutilon theophrasti [6] = assay: Pre-emergence herbicidal action against ABUTH; conditions: visual score after 3 weeks vs untreated controls
Outline: as §1

Echinochloa crus-galli [7] = assay: Post-emergence herbicidal action against ECHCG; conditions: visual assessment about 3 weeks after treatment
Outline: as §2

Matricaria inodora [8] = assay: Post-emergence herbicidal action against MATIN; conditions: visual assessment about 3 weeks after treatment
Outline: as §2

Setaria viridis [9] = assay: Pre-emergence herbicidal action against SETVI; conditions: 80 g/ha
Outline: as §1

Echinochloa crus-galli [10] = assay: Pre-emergence herbicidal action against ECHCG; conditions: 80 g/ha; visual score after 3 weeks vs untreated controls
Outline: as §1

Veronica persica [11] = assay: Post-emergence herbicidal action against VERPE; conditions: 20 g/ha, visual assessment about 3 weeks after treatment
Outline: as §2

Veronica persica [12] = assay: Pre-emergence herbicidal action against VERPE
Outline: as §1

Abutilon theophrasti [13] = assay: Post-emergence herbicidal action against ABUTH
Outline: as §2

Alopecurus myosuroides [14] = assay: Post-emergence herbicidal action against ALOMY
Outline: as §2

Digitaria sanguinalis [15] = assay: Post-emergence herbicidal action against DIGSA
Description: Seeds of monocotyledonous and dicotyledonous weed and crop plants are laid out in sandy loam soil in wood-fiber pots, covered with soil and cultivated in a greenhouse under good growth conditions. 2 to 3 weeks after sowing, the test plants are treated at the one-leaf stage. The compounds of the invention, formulated in the form of wettable powders (WP) or as emulsion concentrates (EC), are then sprayed onto the green parts of the plants in the form of an aqueous suspension or emulsion at a water application rate equivalent to 600 to 800 l/ha, with addition of 0.2% wetting agent. After the test plants have been left to stand in the greenhouse under optimal growth conditions for about 3 weeks, the action of the preparations is assessed visually in comparison to untreated controls (herbicidal action in percent (%): 100% activity=the plants have died, 0% activity=like control plants). […] The tables below illustrate, in an illustrative manner, the post-emergence herbicidal action of the compounds of the invention, the herbicidal activity being stated in percent.

Setaria viridis [16] = assay: Post-emergence herbicidal action against SETVI; conditions: visual assessment about 3 weeks after treatment
Outline: as §2

Matricaria inodora [17] = assay: Pre-emergence herbicidal action against MATIN; conditions: visual score after 3 weeks vs untreated controls
Outline: as §1

Amaranthus retroflexus [18] = assay: Post-emergence herbicidal action against AMARE; conditions: visual assessment about 3 weeks after treatment
Outline: as §2

Avena fatua [19] = assay: Pre-emergence herbicidal action against AVEFA; conditions: 80 g/ha; visual score after 3 weeks vs untreated controls
Outline: as §1

Pharbitis purpurea = assay: Post-emergence herbicidal action against PHBPU; conditions: visual assessment about 3 weeks after treatment
Outline: as §2

Polygonum convolvulus = assay: Pre-emergence herbicidal action against POLCO; conditions: 80 g/ha
Outline: as §1

Avena fatua [20] = assay: Post-emergence herbicidal action against AVEFA; conditions: 20 g/ha, visual assessment about 3 weeks after treatment
Outline: as §2

| Compound | Pre-emergence action against AMARE (Amaranthus retroflexus [1]; 80 g/ha) [%] | Pre-emergence action against ALOMY (Alopecurus myosuroides [2]) [%] | Pre-emergence action against VIOTR (Viola tricolor [3]; 20 g/ha) [%] | Pre-emergence action against VIOTR (Viola tricolor [3]; 80 g/ha) [%] | Post-emergence action against VIOTR in % (Viola tricolor [4]; 5 g/ha) [%] | Post-emergence action against VIOTR in % (Viola tricolor [4]; 20 g/ha) [%] | Pre-emergence action against DIGSA (Digitaria sanguinalis [5]; 20 g/ha) [%] | Pre-emergence action against ABUTH (Abutilon theophrasti [6]; 80 g/ha) [%] | Post-emergence action against ECHCG in % (Echinochloa crus-galli [7]; 20 g/ha) [%] | Post-emergence action against MATIN in % (Matricaria inodora [8]; 20 g/ha) [%] | Pre-emergence action against SETVI (Setaria viridis [9]) [%] | Pre-emergence action against ECHCG (Echinochloa crus-galli [10]) [%] | Pre-emergence action against VERPE (Veronica persica [12]; 80 g/ha) [%] | Post-emergence action against ALOMY (Alopecurus myosuroides [14]; 20 g/ha) [%] | Post-emergence action against DIGSA in % (Digitaria sanguinalis [15]; 20 g/ha) [%] | Post-emergence action against SETVI in % (Setaria viridis [16]; 5 g/ha) [%] | Post-emergence action against SETVI in % (Setaria viridis [16]; 20 g/ha) [%] | Pre-emergence action against MATIN (Matricaria inodora [17]; 80 g/ha) [%] | Post-emergence action against AMARE in % (Amaranthus retroflexus [18]; 5 g/ha) [%] | Post-emergence action against AMARE in % (Amaranthus retroflexus [18]; 20 g/ha) [%] | further results |
| --- | --- | --- | --- | --- | --- | --- | --- | --- | --- | --- | --- | --- | --- | --- | --- | --- | --- | --- | --- | --- | --- |
| CCn1nnnc1NC(=O)c1ccc(C(F)(F)F)c(C(=O)N(C)C)c1C [Example 2-19] | 100 | 90 | 80 | 100 | 80 | 100 | 100 | 100 | 90 | 80 | 100 | 90 | 90 | 80 | 90 | 80 | 80 | 90 | 80 | 90 | Pre-emergence action against DIGSA (Digitaria sanguinalis [5]; 80 g/ha): 100%; Pre-emergence action against ABUTH (Abutilon theophrasti [6]; 20 g/ha): 80%; Post-emergence action against VERPE in % (Veronica persica [11]): 80%; Post-emergence action against ABUTH (Abutilon theophrasti [13]; 20 g/ha): 100% |
| CCn1nnnc1NC(=O)c1ccc(C(F)(F)F)c(C(=O)N(C)C2CC2)c1C [Example 2-21] | 100 | – | 100 | 100 | 100 | 100 | 100 | 100 | 90 | 90 | 100 | 100 | 100 | 90 | 90 | 80 | 100 | 100 | 100 | 100 | Pre-emergence action against AMARE (Amaranthus retroflexus [1]; 20 g/ha): 100%; Pre-emergence action against DIGSA (Digitaria sanguinalis [5]; 80 g/ha): 100%; Pre-emergence action against AVEFA (Avena fatua [19]): 80%; Post-emergence action against PHBPU in % (Pharbitis purpurea; 20 g/ha): 90%; Post-emergence action against ECHCG in % (Echinochloa crus-galli [7]; 5 g/ha): 90%; Post-emergence action against MATIN in % (Matricaria inodora [8]; 5 g/ha): 80%; Pre-emergence action against VERPE (Veronica persica [12]; 20 g/ha): 80%; Post-emergence action against ALOMY (Alopecurus myosuroides [14]; 5 g/ha): 80%; Post-emergence action against DIGSA in % (Digitaria sanguinalis [15]; 5 g/ha): 80%; Pre-emergence action against MATIN (Matricaria inodora [17]; 20 g/ha): 90% |
| CCN(CC)C(=O)c1c(C(F)F)ccc(C(=O)Nc2nnnn2CC)c1Cl [Example 2-166] | 100 | 90 | – | 100 | – | 80 | – | 100 | 80 | 80 | 100 | 90 | 100 | 90 | 90 | 90 | 90 | 100 | 100 | 100 | Pre-emergence action against POLCO (Polygonum convolvulus): 80%; Pre-emergence action against AMARE (Amaranthus retroflexus [1]; 20 g/ha): 100%; Pre-emergence action against AVEFA (Avena fatua [19]): 80%; Post-emergence action against AVEFA in % (Avena fatua [20]): 80%; Post-emergence action against PHBPU in % (Pharbitis purpurea; 5 g/ha): 80%; Post-emergence action against PHBPU in % (Pharbitis purpurea; 20 g/ha): 90%; Pre-emergence action against ABUTH (Abutilon theophrasti [6]; 20 g/ha): 100%; Post-emergence action against MATIN in % (Matricaria inodora [8]; 5 g/ha): 80%; Post-emergence action against ABUTH (Abutilon theophrasti [13]; 5 g/ha): 80%; Post-emergence action against ABUTH (Abutilon theophrasti [13]; 20 g/ha): 90%; Post-emergence action against DIGSA in % (Digitaria sanguinalis [15]; 5 g/ha): 80%; Pre-emergence action against MATIN (Matricaria inodora [17]; 20 g/ha): 80% |
